In US5219884A, “Immunosuppressant” (Taito Co., Ltd., priority 1990, dated 1993):
Like-named read-outs stand apart in the source and are kept apart here.

What was measured:
[1] = test system: IL2 production in PHA-stimulated mouse spleen cells; assay: suppression of IL2 production in PHA-stimulated mouse spleen cells; assay type: cell-based; conditions: for inhibition at 0.01 µg/mL / inhibition at 0.1 µg/mL / inhibition at 1 µg/mL / inhibition at 10 µg/mL: Mus musculus, 24 h, read-out: Suppression
Procedure: Culture of PHA-stimulated mouse spleen cells was carried out as follows: PHA (1/100 dilution) was added to the BALB/c mouse spleen cells suspension prepared in the same way as in Experimental Example 4. The cell suspension (1 ml) and 1 ml of the test substance were added to 24-well multidishes, and cultured at 37° C. in an atmosphere of 5% carbon dioxide for 24 hours. After termination of the culture, the supernatant was collected and used as the supernatant of PHA-stimulated cultures.
The IL2 activity in the supernatants of mouse allogenic MLC and the supernatants of PHA-stimulated mouse spleen cells culture was assayed as follows: IL2-dependent mouse cell line CTLL-2 cells were suspended in the RPMI1640 culture medium supplemented with 30% FCS to the concentration of 10^5 cells/ml, and 100 μl of the suspension was added to each well of 96-well microculture plates in which 100 μl of the supernatant of the MLC described above had been placed. After culturing at 37° C. in an atmosphere of 5% carbon dioxide for 20 hours, 0.5 μCi/well of ^3 H-thymidine was added, and incubated for 4 hours under the same conditions. After termination of the culture, the cells were harvested by a cell harvester, and the radioactivity incorporated into the cells was measured by a liquid scintillation counter. IL2 activity was expressed in U/ml as the titer at various concentrations at which the ^3 H-thymidine incorporation was 50% of the maximum.

[2] = cytotoxicity to tumor cell line PC-6; assay type: cell-based, human; conditions: human, pc-6 cells, read-out: Suppression
Procedure: (§1) Cytotoxicity to human tumor cell lines was examined as follows:
(§2) Cells of human cell lines, K562, MOLT4, U937, HL60, KATOIII, KB, PC-6, PC-14 and CCRF-CEM were separately suspended to the concentration of 2×10^5 cells/ml in the RPMI1640 culture medium supplemented with 20% FCS. Fifty μl of this suspension was added to each well of 96-well microculture plates to which 50 μl of the test solution had been added. After culturing at 37° C. in an atmosphere of 5% carbon dioxide for 72 hours, the absorbancy at 550 nm was measured in the same way as the colorimetry using MTT in Experimental Example 1, and the percent suppression was calculated in the same manner as in Experimental Example 14, which was used as the index of cytotoxicity.

[3] = test system: PC-6; assay: cytotoxicity to tumor cell line PC-6; assay type: cell-based, human
Procedure: as §1, §2

[4] = test system: interleukin 2 receptor (IL-2R, Tac) expression in mouse allogenic MLC; assay: suppression of induction of IL-2R (Tac) expression in mouse allogenic MLC; assay type: cell-based
Procedure: (§3) Mouse allogenic MLC and PHA-stimulated mouse spleen cells were prepared in the same as in Experimental Example 3.
(§4) The IL-2R (Tac) induced in mouse allogenic MLC and PHA-stimulated mouse spleen cells was assayed as follows:
(§5) After culturing the mouse allogenic MLC and the PHA-stimulated mouse spleen cells at 37° C. in an atmosphere of 5% carbon dioxide for 24 hours, the cells were collected by centrifugation (1000 rpm, 5 minutes, 4° C.), and about 10^6 cells were cultured in 10 μl of phosphate buffered saline (PBS), to which 0.02% sodium azide-containing rat anti-mouse IL-2R monoclonal antibody (manufactured by Boehringer Co., 40 μg/ml) had been added, for 30 minutes with ice-cooling. After washing three times with ice-cooled PBS containing 0.02% sodium azide, 50 μl of fluorescein isothiocyanate (FITC)-labeled goat anti-rat immunoglobulin G antibody was added and cultured for 30 minutes with ice-cooling. To the cell pellet after washing three times with ice-cooled 0.02% sodium azide-added PBS was added, a few drops of PBS containing 0.2% sodium azide and 50% glycerin. Prepared specimens on non-fluorescent slide glasses were made and the IL-2R positive cells were counted under a fluorescent microscope to determine the ratio of numbers of IL-2R positive cells in the total numbers of the cells.

[5] = test system: interleukin 1 (IL1) response of mouse thymocytes; assay: suppression of interleukin 1 (IL1) response of mouse thymocytes; assay type: cell-based; conditions: PHA + IL1
Procedure: The thymus was resected from 7-week-old male C3H/HeN mice, and single cell suspension was prepared using the serum-free RPMI1640 culture medium. After three times washing with the medium, the cells were suspended to a concentration of 1.5×10^7 cells/ml in the RPMI1640 culture medium supplemented with 20% fetal calf serum, 5×10^-5 M 2-mercaptoethanol, 2×10^-3 M L-glutamine, 1×10^-3 M sodium pyruvate, 1 μg/ml of phytohemagglutinin (PHA, Wellcome Co., HA16/17) and 2 units/ml of human ultrapure interleukin 1 (Genzyme Co., GUPi-1). One hundred μl of this cell suspension and 100 μl of the solution containing ISP-I were mixed in each well of the 96-well flat-bottomed microculture plate, cultured at 37° C. in an atmosphere of 5% carbon dioxide for 66 hours, and cultured for further 6 hours after addition of 0.5 μCi/well of ^3 H-thymidine. After termination of the culture, the cells in each well were harvested onto a filter by a multiple cell harvester, and the radioactivity incorporated into the cells was measured by liquid scintillation method using a toluene-base scintillator.
In the table, SD means standard deviation. The percent suppression (%) was calculated by the following formulation. [formula]

[6] = test system: interleukin 2 receptor (IL-2R, Tac) expression in PHA-stimulated mouse spleen cells; assay: suppression of induction of IL-2R (Tac) expression in PHA-stimulated mouse spleen cells; assay type: cell-based
Procedure: as §3, §4, §5

CCCCCCC(=O)CCCCCC/C=C/CC1OC(=O)C(N)(CO)C1O (centres unmarked) [Example 4]
IL2 activity ([1]; 0.01 μg/ml): 4.9 U/ml | IL2 activity ([1]; 0.1 μg/ml): 2.6 U/ml | IL2 activity ([1]; 1 μg/ml): < 1 U/ml | IL2 activity ([1]; 10 μg/ml): < 1 U/ml | inhibition at 0.01 µg/mL ([1]; 0.01 μg/ml): 59.5% | inhibition at 0.1 µg/mL ([1]; 0.1 μg/ml): 78.5% | inhibition at 1 µg/mL ([1]; 1 μg/ml): > 92% | inhibition at 10 µg/mL ([1]; 10 μg/ml): > 92% | cytotoxicity at 72 h ([2]; 0.1 μg/ml): 15.1% | cytotoxicity at 72 h ([2]; 1.0 μg/ml): 6.2% | cytotoxicity at 72 h ([2]; 10.0 μg/ml): 6.9% | cytotoxicity at 72 h ([2]; 100.0 μg/ml): 95.2% | Absorbancy ([3]; 0.1 μg/ml): 0.247 | Absorbancy ([3]; 1.0 μg/ml): 0.273 | Absorbancy ([3]; 10.0 μg/ml): 0.271 | Absorbancy ([3]; 100.0 μg/ml): 0.014

CCCCCCC(=O)CCCCCC/C=C/CC(O)C(O)C(N)(CO)C(=O)O (centres unmarked) [Example 1]
IL-2R positive cells ([4]; 0.001 μg/ml): 22.4% | IL-2R positive cells ([4]; 0.01 μg/ml): 17.6% | IL-2R positive cells ([4]; 0.1 μg/ml): 13.1% | IL-2R positive cells ([4]; 1 μg/ml): 11.4% | inhibition at 0.001 µg/mL ([4]; Mus musculus, 24 h, 0.001 μg/ml): 8.2% | inhibition at 0.01 µg/mL ([4]; Mus musculus, 24 h, 0.01 μg/ml): 27.9% | inhibition at 0.1 µg/mL ([4]; Mus musculus, 24 h, 0.1 μg/ml): 44.3% | inhibition at 1 µg/mL ([4]; Mus musculus, 24 h, 1 μg/ml): 53.3% | IL2 activity ([1]; 0.01 μg/ml): 6.5 U/ml | IL2 activity ([1]; 0.1 μg/ml): 2.5 U/ml | IL2 activity ([1]; 1 μg/ml): 1.1 U/ml | IL2 activity ([1]; 10 μg/ml): < 1 U/ml | inhibition at 0.01 µg/mL [1]: 46.3% | inhibition at 0.1 µg/mL [1]: 79.3% | inhibition at 1 µg/mL [1]: 90.9% | inhibition at 10 µg/mL [1]: > 92% | cytotoxicity at 72 h ([2]; 0.1 μg/ml): 9.9% | cytotoxicity at 72 h ([2]; 1.0 μg/ml): 23.2% | cytotoxicity at 72 h ([2]; 100.0 μg/ml): 100% | Absorbancy ([3]; 0.01 μg/ml): 0.244 | Absorbancy ([3]; 0.1 μg/ml): 0.245 | Absorbancy ([3]; 1.0 μg/ml): 0.209 | Absorbancy ([3]; 10.0 μg/ml): 0.202 | Absorbancy ([3]; 100.0 μg/ml): 0.000 | inhibition at 0.2 µg/mL ([5]; Mus musculus, Thymocyte, 72 h, 0.2 μg/ml): 83.9% | inhibition at 2 µg/mL ([5]; Mus musculus, Thymocyte, 72 h, 2 μg/ml): 91.8% | 3H-thymidine uptake ([5]; 0.2 μg/ml): 4646 ± 826 cpm ± SD | 3H-thymidine uptake ([5]; 2 μg/ml): 3973 ± 39 cpm ± SD | IL-2R positive cells ([6]; 0.1 μg/ml): 36.6% | IL-2R positive cells ([6]; 1 μg/ml): 26.6% | IL-2R positive cells ([6]; 10 μg/ml): 13.4% | inhibition at 0.1 µg/mL ([6]; Mus musculus, 24 h, 0.1 μg/ml): 20.8% | inhibition at 1 µg/mL ([6]; Mus musculus, 24 h, 1 μg/ml): 42.4% | inhibition at 10 µg/mL ([6]; Mus musculus, 24 h, 10 μg/ml): 71%
